Assay [1] deals with T1, Arabidopsis HPPD variant Q293N (Arabidopsis thaliana, UniProt P93836, Q293N).
T1 construct: His6 (N); made in house; host or cells: E. coli BL21 (DE3)
Nature of the assay: HPPD activity assay, mutant enzyme. The format is biochemical. As to the method:
(§1) HPPD produces homogentisic acid and CO2 from 4-hydroxyphenylpyruvate (4-HPP) and O2. The activity assay for HPPD is based on the analysis of homogentisic acid by reversed phase HPLC.
(§2) The assay mixture can contain 150 mM potassium phosphate buffer pH 7.0, 50 mM L-ascorbic acid, 1 μM FeSO4 and 7 μg of purified enzyme in a total volume of 1 ml.
Inhibitors are dissolved in DMSO (dimethylsulfoxide) to a concentration of 20 mM or 0.5 mM, respectively. From this stock solution serial five-fold dilutions are prepared in DMSO, which are used in the assay. The respective inhibitor solution accounts for 1% of the assay volume. Thus, final inhibitor concentrations range from 200 μM to 2.5 nM or from 5 μM to 63 pM, respectively.
(§3) After a preincubation of 30 min the reaction is started by adding 4-HPP to a final concentration of 0.1 mM. The reaction is allowed to proceed for 120 min at room temperature. The reaction is stopped by addition of 100 μl of 4.5 M phosphoric acid.
The sample is extracted on an Oasis® HLB cartridge 3 cc/60 mg (Waters) that was preequilibrated with 63 mM phosphoric acid. L-ascorbic acid is washed out with 3 ml of 63 mM phosphoric acid. Homogentisate is eluted with 1 ml of a 1:1 mixture of 63 mM phosphoric acid and methanol (w/w).
10 μl of the eluate is analyzed by reversed phase HPLC on a Symmetry® C18 column (particle size 3.5 μm, dimensions 4.6×100 mm; Waters) using 5 mM H3PO4/15% ethanol (w/w) as an eluent.
Homogentisic acid is detected electrochemically and quantified by measuring peak areas (Empower software; Waters).
(§4) Activities are normalized by setting the uninhibited enzyme activity to 100%. IC50 values are calculated using non-linear regression.
The assay mixture can contain 150 mM potassium phosphate buffer pH 7.0, 50 mM L-ascorbic acid, 100 μM Catalase (Sigma-Aldrich), 1 μM FeSO4 and 0.2 units of purified HPPD enzyme in a total volume of 505 μl. 1 unit is defined as the amount of enzyme that is required to produce 1 nmol of HGA per minute at 20° C.
After a preincubation of 30 min the reaction is started by adding 4-HPP to a final concentration of 0.05 mM. The reaction is allowed to proceed for 45 min at room temperature. The reaction is stopped by the addition of 50 μl of 4.5 M phosphoric acid. The sample is filtered using a […] pore size PVDF filtration device.
5 μl of the cleared sample is analyzed on an Atlantis T3 column (particle size 3 μm, dimensions 3×50 mm; Waters) by isocratic elution using 90% 10 mM NaH2PO4 pH 2.2, 10% methanol (v/v).
(§5) HGA is detected electrochemically at 750 mV (mode: DC; polarity: positive) and quantified by integrating peak areas (Empower software; Waters).
Inhibitors are dissolved in DMSO (dimethylsulfoxide) to a concentration of 0.5 mM. From this stock solution serial five-fold dilutions are prepared in DMSO, which are used in the assay. The respective inhibitor solution accounts for 1% of the assay volume. Thus, final inhibitor concentrations range from 5 μM to 320 pM, respectively. Activities are normalized by setting the uninhibited enzyme activity to 100%. IC50 values are calculated using non-linear regression.
Purified, mutant HPPD enzymes are obtained by the methods described above. Dose response and kinetic measurements are carried out using the described HPPD activity assay. Apparent michaelis constants (Km) and maximal reaction velocities (Vmax) are calculated by non-linear regression with the software GraphPad Prism 5 (GraphPad Software, La Jolla, USA) using a substrate inhibition model. Apparent kcat values are calculated from Vmax assuming 100% purity of the enzyme preparation. Weighted means (by standard error) of Km and IC50 values are calculated from at least three independent experiments. The Cheng-Prusoff equation for competitive inhibition (Cheng, Y. C.; Prusoff, W. H. Biochem Pharmacol 1973, 22, 3099-3108) is used to calculate dissociation constants (Ki). Examples of the data obtained are depicted in Table 13.

The subject of assay [2] is soybean plants, wild type (non-transformed). Nature of the assay: Greenhouse spray test, soybean T0 cuttings. The format is in vivo, Glycine max. The following applies: no transgene, two weeks after treatment, scale 0 (no injury) to 9 (complete death). As to the method: Transgenic plants expressing heterologous HPPD or HST enzymes are tested for tolerance against coumarone-derivative herbicides in greenhouse experiments.
For post emergence treatment, the test plants are first grown to a height of 3 to 15 cm, depending on the plant habit, and only then treated with the herbicides. For this purpose, the test plants are either sown directly and grown in the same containers, or they are first grown separately and transplanted into the test containers a few days prior to treatment.
For testing of T0 plants, cuttings can be used. In the case of soybean plants, an optimal shoot for cutting is about 7.5 to 10 cm tall, with at least two nodes present. Each cutting is taken from the original transformant (mother plant) and dipped into rooting hormone powder (indole-3-butyric acid, IBA). The cutting is then placed in oasis wedges inside a bio-dome. Wild type cuttings are also taken simultaneously to serve as controls. The cuttings are kept in the bio-dome for 5-7 days and then transplanted to pots and then acclimated in the growth chamber for two more days. Subsequently, the cuttings are transferred to the greenhouse, acclimated for approximately 4 days, and then subjected to spray tests as indicated. Depending on the species, the plants are kept at 10-25° C. or 20-35° C. The test period extends over 3 weeks. During this time, the plants are tended and their response to the individual treatments is evaluated. Herbicide injury evaluations are taken at 2 and 3 weeks after treatment. Plant injury is rated on a scale of 0 to 9, 0 being no injury and 9 being complete death.

The next assay deals with Chlamydomonas HPPD1 (Chlamydomonas reinhardtii, UniProt A0A2K3DET7). Nature of the assay: HPPD activity assay, wildtype enzyme. The assay is classed as biochemical. To be noted: calculated from IC50 with Cheng-Prusoff equation, read-out: dissociation constant Ki. As to the method: as §1, §2
Inhibitors are dissolved in DMSO (dimethylsulfoxide) to a concentration of 20 mM or 0.5 mM, respectively. From this stock solution serial five-fold dilutions are prepared in DMSO, which are used in the assay. The respective inhibitor solution accounts for 1% of the assay volume.
as §3, §4
The assay mixture can contain 150 mM potassium phosphate buffer pH 7.0, 50 mM L-ascorbic acid, 100 μM Catalase (Sigma-Aldrich), 1 μM FeSO4 and 0.2 units of purified HPPD enzyme in a total volume of 505 μl. […]
as §5
Inhibitors are dissolved in DMSO (dimethylsulfoxide) to a concentration of 0.5 mM. […] IC50 values are calculated using non-linear regression.
Using methods which are described in the above examples or well known in the art, purified, recombinant wildtype HPPD enzymes are characterized with respect to their kinetic properties and sensitivity towards HPPD inhibiting herbicides. Apparent michaelis constants (Km) and maximal reaction velocities (Vmax) are calculated by non-linear regression with the software GraphPad Prism 5 (GraphPad Software, La Jolla, USA) using a substrate inhibition model. […] Weighted means (by standard error) of Km and IC50 values are calculated from at least three independent experiments.

Chlamydomonas HPPD1, sequence (A0A2K3DET7 entry or part of it): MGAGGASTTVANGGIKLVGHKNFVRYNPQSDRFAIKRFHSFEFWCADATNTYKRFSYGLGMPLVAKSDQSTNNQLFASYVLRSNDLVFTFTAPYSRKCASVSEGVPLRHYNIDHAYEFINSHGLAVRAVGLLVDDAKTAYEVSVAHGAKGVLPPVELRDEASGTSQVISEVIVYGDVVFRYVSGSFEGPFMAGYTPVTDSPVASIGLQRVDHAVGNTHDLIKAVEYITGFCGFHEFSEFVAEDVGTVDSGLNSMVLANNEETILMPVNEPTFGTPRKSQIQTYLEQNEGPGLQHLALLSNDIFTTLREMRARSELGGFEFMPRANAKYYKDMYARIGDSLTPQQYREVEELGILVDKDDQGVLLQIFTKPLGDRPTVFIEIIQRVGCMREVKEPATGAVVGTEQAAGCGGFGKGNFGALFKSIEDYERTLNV
T1 sequence (P93836 whole entry Q293N): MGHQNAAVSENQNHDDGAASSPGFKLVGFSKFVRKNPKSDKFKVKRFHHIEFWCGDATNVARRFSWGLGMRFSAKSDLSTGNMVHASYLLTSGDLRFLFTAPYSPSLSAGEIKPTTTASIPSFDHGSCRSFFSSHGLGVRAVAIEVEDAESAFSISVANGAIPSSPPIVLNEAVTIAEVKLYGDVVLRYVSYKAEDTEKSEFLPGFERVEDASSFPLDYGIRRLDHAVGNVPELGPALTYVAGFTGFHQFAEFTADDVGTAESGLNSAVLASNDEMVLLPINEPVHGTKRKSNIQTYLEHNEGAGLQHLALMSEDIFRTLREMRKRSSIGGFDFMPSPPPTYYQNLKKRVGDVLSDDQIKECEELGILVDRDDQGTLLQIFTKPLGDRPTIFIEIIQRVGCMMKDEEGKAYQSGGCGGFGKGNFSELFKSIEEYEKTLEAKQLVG

The Ki is the dissociation constant of the complex between target and ligand, obtained from inhibition or displacement. For the molecule `CC1=NOC(c2c(Cl)ccc(C3=C(O)c4ncccc4N(CC(F)F)S3(=O)=O)c2Cl)C1` (stereo not drawn) [Inhibitor 1, 3-[2,4-dichloro-3-(3-methyl-4,5-dihydroisoxazol-5-yl)phenyl]-1-(2,2-difluoroethyl)-2,2-dioxo-pyrido[3,2-c]thiazin-4-ol], the Ki in assay [1] was 41 nM; on Chlamydomonas HPPD1 it was 29 nM. Besides, the figures for the “Injury evaluation (plant injury rating)” value in assay [2] (50 g/ha), in assay [2] (100 g/ha) and in assay [2] (200 g/ha) were 4.5, 5.5 and 6, respectively.

For the molecule `Cc1c(C(=O)c2cnn(C)c2O)ccc(S(C)(=O)=O)c1C1=NOCC1` [Topramezone, reference compound], the results for the inhibition constant (Ki) (in assay [1]; at Chlamydomonas HPPD1) were 36 nM and 38 nM, respectively. The “Injury evaluation (plant injury rating)” value in assay [2] (6.25 g/ha) and in assay [2] (12.5 g/ha) was 7 in each case.

Source of the values: patent US20130053243A1, “PLANTS HAVING INCREASED TOLERANCE TO HERBICIDES” (BASF SE, priority 2010, published 2013).
